Source: ChEMBL document CHEMBL1130944, “Exploring structure-activity relationships around the phosphomannose isomerase inhibitor AF14049 via combinatorial synthesis” (Bioorg Med Chem Lett, 1998)
In brackets after ≈: the same amount, converted by molar mass.

test system: Candida albicans; test: Compound was evaluated for the minimum inhibitory concentration against Candida albicans; format: functional; call rule not given here

Molecule O=C(CCCSc1ccc(Cl)c(Cl)c1)NC1(C(=O)NO)Cc2ccccc2C1 has an MIC of 100 µM (≈ 43.9 µg/mL).

target: T1, Mannose-6-phosphate isomerase (Homo sapiens, UniProt P34949); test: Compound was evaluated for the inhibition constant against human phosphomannose isomerase (huPMI)
T1 sequence (P34949 whole entry): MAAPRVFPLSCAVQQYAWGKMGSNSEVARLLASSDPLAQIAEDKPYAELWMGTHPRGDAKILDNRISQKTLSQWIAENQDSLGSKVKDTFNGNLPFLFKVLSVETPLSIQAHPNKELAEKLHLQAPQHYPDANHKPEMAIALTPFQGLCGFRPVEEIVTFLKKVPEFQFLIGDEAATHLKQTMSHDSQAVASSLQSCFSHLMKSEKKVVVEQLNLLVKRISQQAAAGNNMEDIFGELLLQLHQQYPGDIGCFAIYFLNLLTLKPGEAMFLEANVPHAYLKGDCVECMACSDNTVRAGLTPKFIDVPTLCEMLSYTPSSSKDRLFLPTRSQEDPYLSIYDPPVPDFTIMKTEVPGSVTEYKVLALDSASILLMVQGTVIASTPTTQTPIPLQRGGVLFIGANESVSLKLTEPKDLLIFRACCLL

Work on O=C(CCCSc1ccc(Cl)c(Cl)c1)NC1(C(=O)NO)Cc2ccccc2C1 yielded a Ki of 26 µM.

test system: Saccharomyces cerevisiae; test: Compound was evaluated for the minimum inhibitory concentration against Invsc 1, a wild type strain of Saccharomyces cerevisiae; format: functional

In the case of O=C(CCCSc1ccc(Cl)c(Cl)c1)NC1(C(=O)NO)Cc2ccccc2C1, the MIC is reported as 100 µM (≈ 43.9 µg/mL).

target: T1, Mannose-6-phosphate isomerase; test: Compound was tested for inhibition of human phosphomannose isomerase (PMI)

O=CC(O)C(O)COP(=O)(O)O (centres undefined) showed an IC50 of 100 µM.

target: not listed separately; test: Compound was tested for inhibition of porcine phosphomannose isomerase (PMI); design: species or system Sus scrofa

Work on O=CC(O)C(O)COP(=O)(O)O (centres undefined) yielded an IC50 of 100 µM.

target: Mannose-6-phosphate isomerase (Saccharomyces cerevisiae) (UniProt P29952); test: Compound was evaluated for the inhibition of yeast phosphomannose isomerase (PMI) at a concentration of 300 uM; inactive
Sequence (P29952 whole entry, looked up): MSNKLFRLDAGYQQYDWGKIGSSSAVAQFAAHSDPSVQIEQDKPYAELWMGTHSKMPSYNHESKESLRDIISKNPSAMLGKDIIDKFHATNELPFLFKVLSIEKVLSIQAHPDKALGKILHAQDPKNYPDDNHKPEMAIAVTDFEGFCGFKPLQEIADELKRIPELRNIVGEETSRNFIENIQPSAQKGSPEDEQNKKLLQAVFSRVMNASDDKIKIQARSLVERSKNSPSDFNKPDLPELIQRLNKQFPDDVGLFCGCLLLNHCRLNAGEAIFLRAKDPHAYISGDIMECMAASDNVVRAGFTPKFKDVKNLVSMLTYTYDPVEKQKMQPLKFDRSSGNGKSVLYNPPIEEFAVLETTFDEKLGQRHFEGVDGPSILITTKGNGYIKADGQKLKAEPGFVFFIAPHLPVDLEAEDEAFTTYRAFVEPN

For O=C(CCCOc1ccc(Cl)cc1Cl)NC1(C(=O)NO)CCc2ccccc21 (centres undefined), the IC50 was “Not Active”.

test system: Saccharomyces cerevisiae; test: Compound was evaluated for the minimum inhibitory concentration against Saccharomyces cerevisiae; format: functional

Work on O=C(CCCSc1ccc(Cl)c(Cl)c1)NC1(C(=O)NO)Cc2ccccc2C1 yielded an MIC of 80 µM (≈ 35.1 µg/mL).

target: T2, Mannose-6-phosphate isomerase (Candida albicans (strain SC5314 / ATCC MYA-2876) (Yeast), UniProt P34948); test: Inhibition of phosphomannose isomerase enzyme of Candida albicans (CaPMI)
T2 sequence (P34948 whole entry): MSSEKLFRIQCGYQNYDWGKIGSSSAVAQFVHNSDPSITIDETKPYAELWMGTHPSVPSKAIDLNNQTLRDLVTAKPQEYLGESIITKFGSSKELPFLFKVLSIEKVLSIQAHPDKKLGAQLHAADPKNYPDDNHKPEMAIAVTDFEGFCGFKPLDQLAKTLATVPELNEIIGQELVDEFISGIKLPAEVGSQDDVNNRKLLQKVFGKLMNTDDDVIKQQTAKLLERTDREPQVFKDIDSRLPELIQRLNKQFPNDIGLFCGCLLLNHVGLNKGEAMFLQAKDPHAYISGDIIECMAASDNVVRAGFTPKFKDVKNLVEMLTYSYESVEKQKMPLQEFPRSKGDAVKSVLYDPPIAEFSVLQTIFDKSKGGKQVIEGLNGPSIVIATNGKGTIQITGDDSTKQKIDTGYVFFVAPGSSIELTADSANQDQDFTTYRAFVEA

First: NC(=O)C1(NC(=O)CCCOc2cc(Cl)c(Cl)cc2Cl)Cc2ccccc2C1
Second: NC(=O)C1(NC(=O)CCCOc2ccc(Cl)c(Cl)c2)Cc2ccccc2C1
The IC50 of the first is 2-fold higher: 30 µM for the first, 15 µM for the second. The second is the more potent here.

COC(=O)C1(NC(=O)CCCOc2ccc(Cl)c(Cl)c2)Cc2cc3ccccc3cc2C1 and COC(=O)C1(NC(=O)CCCOc2ccc(Cl)c(Cl)c2)Cc2ccc3ccccc3c2C1 (centres undefined) cannot be ordered by IC50: over 200 µM for the first, over 200 µM for the second.

Compared with NC(=O)C1(NC(=O)CCCSc2ccc(Cl)c(Cl)c2)Cc2ccccc2C1, NC(=O)C1(NC(=O)CCCSc2ccc(Cl)cc2Cl)Cc2ccccc2C1 is 2.3-fold higher in IC50: 6 µM for the first, 14 µM for the second.

Going from NC(=O)C1(NC(=O)CCCOc2ccc(Cl)cc2Cl)CCc2ccccc21 (centres undefined) to NC(=O)C1(NC(=O)CCCOc2ccc(Cl)cc2Cl)CCc2ccccc2C1 (centres undefined), the IC50 falls from over 200 µM to 93 µM. The second is the more potent here.

Going from COC(=O)c1ccc2c(c1)CC(NC(=O)CCCOc1ccc(Cl)c(Cl)c1)(C(=O)OC)C2 (centres undefined) to COC(=O)C1(NC(=O)CCCOc2ccc(Cl)cc2Cl)Cc2ccccc2C1, the IC50 falls from over 200 µM to 34 µM.

CC(Cc1ccccc1)(NC(=O)CCCOc1ccc(Cl)cc1Cl)C(N)=O (centres undefined) and O=C(CCCOc1ccc(Cl)cc1Cl)NC1(C(=O)O)Cc2ccccc2C1 cannot be ordered by IC50: over 200 µM for the first, over 500 µM for the second.

Going from NC(=O)C1(NC(=O)CCCOc2ccc(Cl)cc2Cl)CCCC1 to NNC(=O)C1(NC(=O)CCCOc2ccc(Cl)cc2Cl)Cc2ccccc2C1, the IC50 falls from over 200 µM to 40 µM.

O=C(CCCOc1ccc(Cl)cc1Cl)NC1(C(=O)NO)Cc2ccccc2C1 and CNC(=O)C1(NC(=O)CCCOc2ccc(Cl)cc2Cl)Cc2ccccc2C1 are within 1.5-fold of each other in IC50: 39 µM for the first, 34 µM for the second.

Compared with NC(=O)C1(NC(=O)CCCNc2ccc(Cl)c(Cl)c2)Cc2ccccc2C1, NC(=O)C1(NC(=O)CCCNc2ccc(Cl)cc2Cl)Cc2ccccc2C1 is 2.4-fold higher in IC50: 21 µM for the first, 50 µM for the second.

Compared with O=C(CCCOc1ccc(Cl)cc1Cl)NC1Cc2ccccc2C1, O=C(CCCOc1ccc(Cl)cc1Cl)NC1(CO)Cc2ccccc2C1 is lower in IC50: over 200 µM for the first, 140 µM for the second. The second is the more potent here.

Going from Cc1cc(OCCCC(=O)NC2(C(N)=O)Cc3ccccc3C2)ccc1Cl to NC(=O)C1Cc2ccccc2CN1C(=O)CCCOc1ccc(Cl)cc1Cl (centres undefined), the IC50 rises from 50 µM to over 200 µM.
